In PubChem BioAssay AID330 (DTP/NCI, 2004):
Several values for one entry are separate records, joined by “and”; a condition that tells them apart may be missing. Equal entries are not always repeated. Toxic doses and inconclusive results are not listed. Rule for the calls: active = survival T/C of 150% or more; inactive = T/C below 125% in these data.

Tested on: P388 leukemia ip, CD2F1 mice, survival T/C
Assay: NCI In Vivo Anticancer Drug Screen. Data for tumor model P388 Leukemia (intraperitoneal) in CD2F1 (CDF1) mice
Settings: endpoint: median survival time, higher = longer survival
Procedure, shortened: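 Mice carrying the transplanted tumor received test compound or vehicle. Survival was recorded in each group, and the value is the treated-group measurement divided by that of the vehicle-treated control group.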

[1] = dose: 12.5 mg/kg/injection, schedule: Q01DX009 (ip), vehicle: saline
[2] = dose: 25.0 mg/kg/injection, schedule: Q01DX009 (ip), vehicle: saline
[3] = dose: 50.0 mg/kg/injection, schedule: Q01DX005 (ip), vehicle: Klucel (hydroxypropylcellulose) (HPC)
[4] = dose: 100.0 mg/kg/injection, schedule: Q01DX005 (ip), vehicle: Klucel (hydroxypropylcellulose) (HPC)
[5] = dose: 200.0 mg/kg/injection, schedule: Q01DX005 (ip), vehicle: Klucel (hydroxypropylcellulose) (HPC)
[6] = dose: 50.0 mg/kg/injection, schedule: Q01DX009 (ip), vehicle: saline with Tween-80
[7] = dose: 100.0 mg/kg/injection, schedule: Q01DX009 (ip), vehicle: saline with Tween-80
[8] = dose: 200.0 mg/kg/injection, schedule: Q01DX009 (ip), vehicle: saline with Tween-80

Measured: T/C

Nc1ncnc2c1ncn2C(C=O)OC(C=O)CO (stereo unspecified)
active: dose: 9.38 mg/kg/injection, schedule: Q04DX003 (ip), vehicle: saline 177 % of control | [1] 150 % of control | [2] 186 % of control | dose: 75.0 mg/kg/injection, schedule: Q04DX003 (ip), vehicle: saline 209 % of control
inactive: dose: 4.4 mg/kg/injection, schedule: Q04DX003 (ip), vehicle: saline 118 % of control | dose: 6.6 mg/kg/injection, schedule: Q04DX003 (ip), vehicle: saline 118 % of control | dose: 37.5 mg/kg/injection, schedule: Q04DX003 (ip), vehicle: saline 118 % of control

CC1(C)c2ccccc2-c2nc3ccccc3cc2C1O (stereo unspecified)
inactive: dose: 25.0 mg/kg/injection, schedule: Q01DX001 (ip), vehicle: saline 96 % of control | dose: 50.0 mg/kg/injection, schedule: Q01DX001 (ip), vehicle: saline 103 % of control | dose: 100.0 mg/kg/injection, schedule: Q01DX001 (ip), vehicle: saline 101 % of control | dose: 200.0 mg/kg/injection, schedule: Q01DX001 (ip), vehicle: saline 103 % of control

CCC[CH2][Sn]([CH2]CCC)[S]CC(N)C(=O)O (stereo unspecified)
inactive: dose: 0.16 mg/kg/injection, schedule: Q01DX005 (ip), vehicle: Klucel (hydroxypropylcellulose) (HPC) 107 % of control | dose: 0.23 mg/kg/injection, schedule: Q01DX005 (ip), vehicle: Klucel (hydroxypropylcellulose) (HPC) 108 % of control | dose: 0.46 mg/kg/injection, schedule: Q01DX005 (ip), vehicle: Klucel (hydroxypropylcellulose) (HPC) 103 % of control and 104 % of control | dose: 0.93 mg/kg/injection, schedule: Q01DX005 (ip), vehicle: Klucel (hydroxypropylcellulose) (HPC) 117 % of control | dose: 3.75 mg/kg/injection, schedule: Q01DX005 (ip), vehicle: Klucel (hydroxypropylcellulose) (HPC) 108 % of control

Cc1nnc(NC(=O)c2cc(=O)c3cc(Cl)ccc3o2)s1
inactive: [3] 100 % of control | [4] 106 % of control | [5] 100 % of control

CC(=O)OC12CC[N+]3(C)CCCCC3C1=Nc1ccccc12 (stereo unspecified)
inactive: [1] 110 % of control | [2] 99 % of control

CCOC1OCN(c2ccccc2)CC1(C)C (stereo unspecified)
inactive: [6] 115 % of control | [7] 114 % of control | [8] 108 % of control | dose: 400.0 mg/kg/injection, schedule: Q01DX009 (ip), vehicle: saline with Tween-80 117 % of control

CCOC(=O)C(C(=O)OCC)c1nc[nH]c1[N+](=O)[O-]
inactive: dose: 25.0 mg/kg/injection, schedule: Q04DX003 (ip), vehicle: saline with Tween-80 108 % of control | dose: 50.0 mg/kg/injection, schedule: Q04DX003 (ip), vehicle: saline with Tween-80 104 % of control | dose: 100.0 mg/kg/injection, schedule: Q04DX003 (ip), vehicle: saline with Tween-80 100 % of control and 97 % of control

S=C(Cl)Sc1ccc(-c2ccc(SC(=S)Cl)cc2)cc1
inactive: [3] 88 % of control | [4] 88 % of control | [5] 87 % of control

O=C(Cc1ccccc1)c1ccc(C(F)(F)F)cc1
inactive: dose: 12.5 mg/kg/injection, schedule: Q01DX009 (ip), vehicle: Klucel (hydroxypropylcellulose) (HPC) 104 % of control | dose: 25.0 mg/kg/injection, schedule: Q01DX009 (ip), vehicle: Klucel (hydroxypropylcellulose) (HPC) 95 % of control | dose: 50.0 mg/kg/injection, schedule: Q01DX009 (ip), vehicle: Klucel (hydroxypropylcellulose) (HPC) 104 % of control and 87 % of control

NC(=S)N/N=C/c1cccnc1
inactive: dose: 25.0 mg/kg/injection, schedule: Q01DX009 (ip), vehicle: saline with Tween-80 92 % of control | [6] 92 % of control | [7] 99 % of control | [8] 92 % of control

CN1c2cccc[c]2[Sn]([CH3])([CH3])[c]2ccccc21
inactive: dose: 30.0 mg/kg/injection, schedule: Q01DX005 (ip), vehicle: saline with Tween-80 115 % of control | dose: 60.0 mg/kg/injection, schedule: Q01DX005 (ip), vehicle: saline with Tween-80 113 % of control and 123 % of control | dose: 120.0 mg/kg/injection, schedule: Q01DX005 (ip), vehicle: saline with Tween-80 124 % of control

O=C1c2ccccc2C(=O)c2c(NCCCC3CCCN4CCCCC34)cccc21 (stereo unspecified)
inactive: [3] 105 % of control | [4] 100 % of control

CN=C1NS(=O)(=O)c2ccccc21
inactive: dose: 50.0 mg/kg/injection, schedule: Q01DX005 (ip), vehicle: saline with Tween-80 93 % of control | dose: 100.0 mg/kg/injection, schedule: Q01DX005 (ip), vehicle: saline with Tween-80 108 % of control | dose: 200.0 mg/kg/injection, schedule: Q01DX005 (ip), vehicle: saline with Tween-80 97 % of control
